According to patent US20140255392A1 (BAYER INTELLECTUAL PROPERTY GMBH, priority 2011, published 2014):

Each compound was assayed against T1, human kinase Mps-1 (Homo sapiens, UniProt P33981) (assay: Mps-1 kinase assay (TR-FRET)). Conditions: N-terminally GST-tagged human full length recombinant Mps-1; 10 μM ATP; 1 μM peptide substrate; 60 min at 22° C.
T1 construct: N-terminally GST-tagged human full length recombinant Mps-1 kinase; GST (N); purchased Invitrogen, Karslruhe, Germany PV4071
T1 sequence (P33981 1-857): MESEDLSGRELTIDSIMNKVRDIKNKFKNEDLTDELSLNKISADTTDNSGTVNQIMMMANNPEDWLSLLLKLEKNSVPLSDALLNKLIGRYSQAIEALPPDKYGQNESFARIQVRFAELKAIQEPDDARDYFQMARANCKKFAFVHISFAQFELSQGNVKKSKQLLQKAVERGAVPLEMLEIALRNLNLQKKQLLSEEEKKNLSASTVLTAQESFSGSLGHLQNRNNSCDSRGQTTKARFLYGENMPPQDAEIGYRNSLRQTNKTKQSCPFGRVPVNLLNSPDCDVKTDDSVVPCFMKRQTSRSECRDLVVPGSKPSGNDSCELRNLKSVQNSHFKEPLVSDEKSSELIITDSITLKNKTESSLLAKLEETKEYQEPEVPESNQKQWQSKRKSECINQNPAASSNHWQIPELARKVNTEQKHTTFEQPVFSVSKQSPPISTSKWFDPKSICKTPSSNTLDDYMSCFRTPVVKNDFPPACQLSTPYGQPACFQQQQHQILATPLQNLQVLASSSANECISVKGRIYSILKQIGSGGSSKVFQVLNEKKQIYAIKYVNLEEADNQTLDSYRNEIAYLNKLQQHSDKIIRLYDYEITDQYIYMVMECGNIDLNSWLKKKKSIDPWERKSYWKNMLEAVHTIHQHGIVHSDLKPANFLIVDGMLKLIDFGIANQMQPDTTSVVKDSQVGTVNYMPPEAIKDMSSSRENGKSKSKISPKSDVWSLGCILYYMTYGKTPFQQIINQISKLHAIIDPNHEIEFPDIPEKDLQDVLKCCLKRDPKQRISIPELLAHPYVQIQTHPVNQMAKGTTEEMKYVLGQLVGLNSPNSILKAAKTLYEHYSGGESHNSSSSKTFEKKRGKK
Format: biochemical
How it was run: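 Next, Eu-labelled anti-phospho(Ser/Thr) antibody and SA-XLent bind for 1 h at 22° C. Finally, energy transfer quantifies phosphorylated product.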
Work on `Cc1cc(-c2cnc3c(NCCC(F)(F)F)cc(Oc4cccc(Cl)c4)cn23)ccc1C(=O)NC1CC1` [Example 31, 4-{6-(3-chlorophenoxy)-8-[(3,3,3-trifluoropropyl)amino]imidazo[1,2-a]pyridin-3-yl}-N-cyclopropyl-2-methylbenzamide] yielded an IC50 of 1.3 nM. `CNC(=O)c1ccc(-c2cnc3c(NCCC(F)(F)F)cc(Oc4ccc(OC(F)(F)F)cc4)cn23)cc1C` [Example 67, N,2-dimethyl-4-{6-[4-(trifluoromethoxy)phenoxy]-8-[(3,3,3-trifluoropropyl)amino]imidazo[1,2-a]pyridin-3-yl}benzamide] gave an IC50 of 72.8 nM. For `Cc1cc(-c2cnc3c(NCCC(F)(F)F)cc(Oc4cccc(F)c4)cn23)ccc1C(=O)NC1(C#N)CC1` [Example 13, N-(1-cyanocyclopropyl)-4-{6-(3-fluorophenoxy)-8-[(3,3,3-trifluoropropyl)amino]imidazo[1,2-a]pyridin-3-yl}-2-methylbenzamide], the IC50 was 11.1 nM. Work on `Cc1cc(-c2cnc3c(NCCC(F)(F)F)cc(Oc4ccc(OC(F)(F)F)cc4)cn23)ccc1C(=O)NC1(C)CC1` [Example 66, 2-Methyl-N-(1-methylcyclopropyl)-4-{6-[4-(trifluoromethoxy)phenoxy]-8-[(3,3,3-trifluoropropyl)amino]imidazo[1,2-a]pyridin-3-yl}benzamide] yielded an IC50 of 161 nM. Work on `CNC(=O)c1ccc(-c2cnc3c(NCCC(F)(F)F)cc(Oc4cccc(OC(F)(F)F)c4)cn23)cc1C` [Example 78, N,2-dimethyl-4-{6-[3-(trifluoromethoxy)phenoxy]-8-[(3,3,3-trifluoropropyl)amino]imidazo[1,2-a]pyridin-3-yl}benzamide] yielded an IC50 of 30.3 nM. Work on `C#Cc1cc(NCCC(F)(F)F)c2ncc(-c3ccc(C(=O)NC4(C)CC4)c(C)c3)n2c1` [Example 17, 4-{6-ethynyl-8-[(3,3,3-trifluoropropyl)amino]imidazo[1,2-a]pyridin-3-yl}-2-methyl-N-(1-methylcyclopropyl)benzamide] yielded an IC50 of 108 nM. `Cc1cc(-c2cnc3c(NCCC(F)(F)F)cc(Oc4cccc(OC(F)(F)F)c4)cn23)ccc1C(=O)NC1CC1` [Example 74, N-cyclopropyl-2-methyl-4-{6-[3-(trifluoromethoxy)phenoxy]-8-[(3,3,3-trifluoropropyl)amino]imidazo[1,2-a]pyridin-3-yl}benzamide] gave an IC50 of 6.8 nM. Compound `C/C=C/c1cc(NCCC(F)(F)F)c2ncc(-c3ccc(C(=O)NC4CC4)c(C)c3)n2c1` [Example 111, N-cyclopropyl-2-methyl-4-{6-[(1E)-prop-1-en-1-yl]-8-[(3,3,3-trifluoropropyl)amino]imidazo[1,2-a]pyridin-3-yl}benzamide] has an IC50 of 5.8 nM. Compound `CNC(=O)c1ccc(-c2cnc3c(NCCC(F)(F)F)cc(C#CCO)cn23)cc1C` [Example 20, 4-{6-(3-hydroxyprop-1-yn-1-yl)-8-[(3,3,3-trifluoropropyl)amino]imidazo[1,2-a]pyridin-3-yl}-N,2-dimethylbenzamide] has an IC50 of 41.1 nM. In the case of `COc1cccc(Oc2cc(NCCC(F)(F)F)c3ncc(-c4ccc(C(=O)NC5(C#N)CC5)c(C)c4)n3c2)c1` [Example 53, N-(1-cyanocyclopropyl)-4-{6-(3-methoxyphenoxy)-8-[(3,3,3-trifluoropropyl)amino]imidazo[1,2-a]pyridin-3-yl}-2-methylbenzamide], the IC50 is reported as 19.5 nM. For `C/C=C/c1cc(NCCC(F)(F)F)c2ncc(-c3ccc(C(=O)NC4(C)CC4)c(C)c3)n2c1` [Example 114, 2-Methyl-N-(1-methylcyclopropyl)-4-{6-[(1E)-prop-1-en-1-yl]-8-[(3,3,3-trifluoropropyl)amino]imidazo[1,2-a]pyridin-3-yl}benzamide], the IC50 was 75.3 nM. `Cc1cc(-c2cnc3c(NCCC(F)(F)F)cc(Oc4cncc(F)c4)cn23)ccc1C(=O)NC1CC1` [Example 177, N-cyclopropyl-4-{6-[(5-fluoropyridin-3-yl)oxy]-8-[(3,3,3-trifluoropropyl)amino]imidazo[1,2-a]pyridin-3-yl}-2-methylbenzamide] was tested, and the IC50 was 20.4 nM. With `CNC(=O)c1ccc(-c2cnc3c(NCCC(F)(F)F)cc(Oc4ccc(OC(F)(F)F)c(F)c4)cn23)cc1C` [Example 86, 4-{6-[3-Fluoro-4-(trifluoromethoxy)phenoxy]-8-[(3,3,3-trifluoropropyl)amino]imidazo[1,2-a]pyridin-3-yl}-N,2-dimethylbenzamide] the IC50 was 56.7 nM. `COc1ccc(Oc2cc(NCCC(F)(F)F)c3ncc(-c4ccc(C(=O)N[C@H]5C[C@@H]5C)c(C)c4)n3c2)cc1F` (relative stereo) [Example 125, 4-{6-(3-fluoro-4-methoxyphenoxy)-8-[(3,3,3-trifluoropropyl)amino]imidazo[1,2-a]pyridin-3-yl}-2-methyl-N-[rel-(1S,2S)-2-methylcyclopropyl]benzamide] showed an IC50 of 2 nM. For `CCNC(=O)c1ccc(-c2cnc3c(NCCC(F)(F)F)cc(C#CCO)cn23)cc1C` [Example 21, N-ethyl-4-{6-(3-hydroxyprop-1-yn-1-yl)-8-[(3,3,3-trifluoropropyl)amino]imidazo[1,2-a]pyridin-3-yl}-2-methylbenzamide], the IC50 was 33.7 nM. With `COCCNc1cc(Oc2ccc(F)c(F)c2)cn2c(-c3ccc(C(=O)NC4CC4)c(C)c3)cnc12` [Example 171, N-cyclopropyl-4-{6-(3,4-difluorophenoxy)-8-[(2-methoxyethyl)amino]imidazo[1,2-a]pyridin-3-yl}-2-methylbenzamide] the IC50 was 115 nM. For `Cc1cc(-c2cc(NCCC(F)(F)F)c3ncc(-c4ccc(C(=O)NC5CC5)c(C)c4)n3c2)ccc1C(N)=O` [Example 153, 4-{6-(4-carbamoyl-3-methylphenyl)-8-[(3,3,3-trifluoropropyl)amino]imidazo[1,2-a]pyridin-3-yl}-N-cyclopropyl-2-methylbenzamide], the IC50 was 0.5 nM. With `CCNC(=O)c1ccc(-c2cnc3c(NCCC(F)(F)F)cc(Oc4ccc(OC(F)(F)F)cc4)cn23)cc1C` [Example 68, N-ethyl-2-methyl-4-{6-[4-(trifluoromethoxy)phenoxy]-8-[(3,3,3-trifluoropropyl)amino]imidazo[1,2-a]pyridin-3-yl}benzamide] the IC50 was 124 nM. With `Cc1ccc(F)cc1Oc1cc(NCCC(F)(F)F)c2ncc(-c3ccc(C(=O)NC4CC4)c(C)c3)n2c1` [Example 19, N-cyclopropyl-4-{6-(5-fluoro-2-methylphenoxy)-8-[(3,3,3-trifluoropropyl)amino]imidazo[1,2-a]pyridin-3-yl}-2-methylbenzamide] the IC50 was 0.7 nM. For `Cc1ccc(F)cc1Oc1cc(NCCC(F)(F)F)c2ncc(-c3ccc(C(=O)NC4CCC4)c(C)c3)n2c1` [Example 47, N-cyclobutyl-4-{6-(5-fluoro-2-methylphenoxy)-8-[(3,3,3-trifluoropropyl)amino]imidazo[1,2-a]pyridin-3-yl}-2-methylbenzamide], the IC50 was 7.6 nM. In the case of `CCc1cc(NCCC(F)(F)F)c2ncc(-c3ccc(C(=O)N[C@H]4C[C@@H]4C)c(C)c3)n2c1` (relative stereo) [Example 105, 4-{6-Ethyl-8-[(3,3,3-trifluoropropyl)amino]imidazo[1,2-a]pyridin-3-yl}-2-methyl-N-[rel-(1S,2S)-2-methylcyclopropyl]benzamide], the IC50 is reported as 49.8 nM. Compound `Cc1cc(-c2cnc3c(NCCC(F)(F)F)cc(Oc4cccc(O)c4)cn23)ccc1C(=O)NC1(C)CC1` [Example 137, 4-{6-(3-Hydroxyphenoxy)-8-[(3,3,3-trifluoropropyl)amino]imidazo[1,2-a]pyridin-3-yl}-2-methyl-N-(1-methylcyclopropyl)benzamide] has an IC50 of 2.2 nM. `CNC(=O)c1ccc(-c2cnc3c(NCCC(F)(F)F)cc(-c4ccc(C(=O)NC5(C#N)CC5)c(C)c4)cn23)cc1C` [Example 156, 4-(6-{4-[(1-cyanocyclopropyl)carbamoyl]-3-methylphenyl}-8-[(3,3,3-trifluoropropyl)amino]imidazo[1,2-a]pyridin-3-yl)-N,2-dimethylbenzamide] showed an IC50 of 21.3 nM. In the case of `CNC(=O)c1ccc(-c2cnc3c(NCCC(F)(F)F)cc(-c4ccc(C(=O)NC5(C)CC5)c(C)c4)cn23)cc1C` [Example 157, 2-methyl-N-(1-methylcyclopropyl)-4-{3-[3-methyl-4-(methylcarbamoyl)phenyl]-8-[(3,3,3-trifluoropropyl)amino]imidazo[1,2-a]pyridin-6-yl}benzamide], the IC50 is reported as 15.3 nM. Compound `CCNC(=O)c1ccc(-c2cnc3c(NCCC(F)(F)F)cc(Oc4ccc(OC(F)(F)F)c(F)c4)cn23)cc1C` [Example 87, N-ethyl-4-{6-[3-fluoro-4-(trifluoromethoxy)phenoxy]-8-[(3,3,3-trifluoropropyl)amino]imidazo[1,2-a]pyridin-3-yl}-2-methylbenzamide] has an IC50 of 70.3 nM.
